Data as given in patent US8420571B2, “Synergistic herbicidal composition containing fluroxypyr and cyhalofop, metamifop or profoxydim” (Dow AgroSciences, LLC, priority 2009, dated 2013).
Values joined by “and” are separate entries in the source; they are usually repeats but may differ in a detail not shown here. Equal entries are not always repeated.

Assays:
Assay type in all cases: in vivo
[1] = tested on: winklegrass (Ischaemum rugosum; ISCRU); test: Postemergence herbicidal activity of mixtures in the greenhouse, visual weed control; settings: 14 DAA, Table 1
Description: (§1) Evaluation of Postemergence Herbicidal Activity of Mixtures in the Greenhouse
(§2) Seeds of the desired test plant species were planted in 80% mineral soil/20% grit planting mixture, which typically has a pH of 7.2 and an organic matter content of about 2.9 percent, in plastic pots with a surface area of 128 square centimeters (cm^2). The growing medium was steam sterilized. The plants were grown for 7-19 days in a greenhouse with an approximate 14-hour (h) photoperiod which was maintained at about 29° C. during the day and 26° C. during the night. Nutrients and water were added on a regular basis and supplemental lighting was provided with overhead metal halide 1000-Watt lamps as necessary. The plants were treated with postemergence foliar applications when they reached the third to fourth true leaf stage. All treatments were applied using a randomized complete block trial design, with 4 replications per treatment.
(§3) Treatments consisted of the compounds as listed in Tables 1, 2, 4 and 5 with each compound applied alone and in combination. Formulated amounts of cyhalofop-butyl, metamifop, profoxydim and fluoroxypyr-meptyl ester, were placed in 60 milliliter (mL) glass vials and dissolved in a volume of 60 mL of a water solution containing Agri-dex crop oil concentrate in a 1% volume per volume (v/v) ratio. Compound requirements are based upon a 12 mL application volume at a rate of 187 liters per hectare (L/ha). Spray solutions of the mixtures were prepared by adding the stock solutions to the appropriate amount of dilution solution to form 12 mL spray solution with active ingredients in single and two way combinations. Formulated compounds were applied to the plant material with an overhead Mandel track sprayer equipped with 8002E nozzles calibrated to deliver 187 L/ha at a spray height of 18 inches ([…] (cm)) above average plant canopy.
(§4) The treated plants and control plants were placed in a greenhouse as described above and watered by sub-irrigation to prevent wash-off of the test compounds. Treatments were rated at 14 to 21 days after application as compared to the untreated control plants. Percent visual weed control was scored on a scale of 0 to 100 percent where 0 corresponds to no injury and 100 corresponds to complete kill.
(§5) Colby's equation was used to determine the herbicidal effects expected from the mixtures (Colby, S. R. Calculation of the synergistic and antagonistic response of herbicide combinations. Weeds 1967, 15, 20-22.).
(§6) The following equation was used to calculate the expected activity of mixtures containing two active ingredients, A and B: Expected=A+B−(A×B/100)
(§7) A=observed efficacy of active ingredient A at the same concentration as used in the mixture.
(§8) B=observed efficacy of active ingredient B at the same concentration as used in the mixture.

[2] = tested on: broadleaf signalgrass (Brachiaria platyphylla; BRAPP); test: as above
Description: as §1, §2, §3, §4, §5, §6, §7, §8

[3] = tested on: Chinese sprangletop (Leptochloa chinensis; LEFCH); test: as above; settings: 21 DAA
Description: as §1, §2, §3, §4, §5, §6, §7, §8

[4] = tested on: barnyardgrass (Echinochloa crus-galli; ECHCG); test: as above
Description: as §1, §2, §3, §4, §5, §6, §7, §8

[5] = tested on: giant foxtail (Setaria faberi; SETFA); test: as above; settings: 21 DAA, Table 2
Description: as §1, §2, §3, §4, §5, §6, §7, §8

[6] = tested on: barnyardgrass (Echinochloa crus-galli; ECHCG); test: Postemergence herbicidal activity of mixtures in the field (drill-seeded rice), visual weed control; settings: 29-36 DAA, Table 3
Description: (§9) Evaluation of Postemergence Herbicidal Activity of Mixtures in the Field
(§10) Field trials were conducted in drill-seeded rice using standard herbicide small plot research methodology. Plots were typically 3×10 meters (m, width×length) in size with 4 replicates per treatment. The rice crop was grown using normal cultural practices for fertilization, seeding, watering, flooding and maintenance to ensure good growth of the crop and the weeds.
(§11) All treatments in the field trials were applied using a carbon dioxide (CO2) backpack sprayer calibrated to apply 187 L/ha spray volume. Commercially available products of cyhalofop-butyl and fluoroxypyr-meptyl were mixed in water at appropriately formulated product rates to achieve the desired rates based on a unit area of application (hectare) to achieve the desired application rates as shown. Treatments were rated at 29 to 36 days after application (DAA) as compared to the untreated control plants. Percent visual weed control was scored on a scale of 0 to 100 percent where 0 corresponds to no injury and 100 corresponds to complete kill.
(§12) All treatment results, both for the single product and mixtures, are an average of 4 replicates and the tank mix interactions are significant at the […] level using Tukey's T-test.
as §5, §6, §7, §8

[7] = tested on: tighthead sprangletop (Leptochloa panicoides; LEFPA); test: as above; settings: 29-36 DAA, Table 3
Description: as §9, §10, §11, §12, §5, §6, §7, §8

[8] = Fluroxypyr 50 g ae/ha alone, 21 DAA, Table 4
[9] = Fluroxypyr 70 g ae/ha alone, 14 DAA, Table 1
[10] = Fluroxypyr 100 g ae/ha alone, 21 DAA, Table 4
[11] = Fluroxypyr 200 g ae/ha alone, 21 DAA, Table 4
[12] = Metamifop 7.5 g ai/ha alone, 21 DAA, Table 4
[13] = Metamifop 15 g ai/ha alone, 21 DAA, Table 4

In the case of `C[C@@H](Oc1ccc(Oc2ccc(C#N)cc2F)cc1)C(=O)O` [Cyhalofop, (2R)-2-[4-(4-cyano-2-fluorophenoxy)phenoxy]-propanoic acid], the “% Control ISCRU Ob” value ([1]; Cyhalofop 126 g ae/ha alone) is reported as 15%, the “% Control BRAPP Ob” value ([2]; Cyhalofop 253 g ae/ha alone, 14 DAA, Table 1) is reported as 77% and the “% Control LEFCH Ob” value ([3]; Cyhalofop 63 g ae/ha alone, Table 2) is reported as 67%. The “% Control ECHCG Ob” value ([4]; Cyhalofop 63 g ae/ha alone, 14 DAA, Table 1) was 55%, the “% Control ECHCG Ob” value ([4]; Cyhalofop 126 g ae/ha alone, 14 DAA, Table 1) was 73% and the “% Control SETFA Ob” value ([5]; Cyhalofop 63 g ae/ha alone) was 82%. The “% Control ECHCG Ob” value ([6]; Cyhalofop 262 g ae/ha alone) was 67% and the “% Control LEFPA Ob” value ([7]; Cyhalofop 262 g ae/ha alone) was 33%.

For `Nc1c(Cl)c(F)nc(OCC(=O)O)c1Cl` [Fluroxypyr, [(4-amino-3,5-dichloro-6-fluoro-2-pyridinyl)oxy]acetic acid], the “% Control ISCRU Ob” value ([1]; Fluroxypyr 140 g ae/ha alone) was 15%, the “% Control BRAPP Ob” value [2, 8] was 5% and the “% Control BRAPP Ob” value [2, 9] was 22%. The “% Control BRAPP Ob” value [2, 10] was 1%, the “% Control BRAPP Ob” value [2, 11] was 5% and the “% Control LEFCH Ob” value ([3]; Fluroxypyr 50 g ae/ha alone, Table 4) was 6%. The “% Control LEFCH Ob” value ([3]; Fluroxypyr 70 g ae/ha alone, Table 2) was 28%, the “% Control LEFCH Ob” value ([3]; Fluroxypyr 100 g ae/ha alone, Table 5) was 41% and the “% Control LEFCH Ob” value ([3]; Fluroxypyr 140 g ae/ha alone, Table 2) was 5%. The “% Control LEFCH Ob” value ([3]; Fluroxypyr 200 g ae/ha alone, Table 4) was 41%, the “% Control LEFCH Ob” value ([3]; Fluroxypyr 200 g ae/ha alone, Table 5) was 48% and 49% and the “% Control ECHCG Ob” value [4, 8] was 0%. The “% Control ECHCG Ob” value ([4]; Fluroxypyr 50 g ae/ha alone, 21 DAA, Table 5) was 0%, the “% Control ECHCG Ob” value [4, 9] was 14% and the “% Control ECHCG Ob” value [4, 10] was 11%. For the same molecule, the “% Control ECHCG Ob” value ([4]; Fluroxypyr 100 g ae/ha alone, 21 DAA, Table 5) was 0%, the “% Control ECHCG Ob” value ([4]; Fluroxypyr 140 g ae/ha alone, 14 DAA, Table 1) was 9% and the “% Control ECHCG Ob” value [4, 11] was 6%. The “% Control ECHCG Ob” value ([4]; Fluroxypyr 200 g ae/ha alone, 21 DAA, Table 5) was 5%, the “% Control ECHCG Ob” value ([4]; Fluroxypyr 280 g ae/ha alone, 14 DAA, Table 1) was 8% and the “% Control SETFA Ob” value ([5]; Fluroxypyr 140 g ae/ha alone) was 50%. For the same molecule, the “% Control ECHCG Ob” value ([6]; Fluroxypyr 580 g ae/ha alone) was 0%, the “% Control LEFPA Ob” value ([7]; Fluroxypyr 190 g ae/ha alone) was 0% and the “% Control LEFPA Ob” value ([7]; Fluroxypyr 290 g ae/ha alone) was 3%. The “% Control LEFPA Ob” value ([7]; Fluroxypyr 580 g ae/ha alone) was 0%.

`C[C@@H](Oc1ccc(Oc2nc3ccc(Cl)cc3o2)cc1)C(=O)N(C)c1ccccc1F` [Metamifop, (2R)-2-[4-[(6-chloro-2-benzoxazolyl)oxy]-phenoxy]-N-(2-fluorophenyl)-N-methylpropanamide] was tested, and the “% Control BRAPP Ob” value [2, 12] was 25%, the “% Control BRAPP Ob” value [2, 13] was 54% and the “% Control LEFCH Ob” value ([3]; Metamifop 7.5 g ai/ha alone, Table 4) was 23%. For the same molecule, the “% Control LEFCH Ob” value ([3]; Metamifop 30 g ai/ha alone, Table 4) was 88%, the “% Control ECHCG Ob” value [4, 12] was 5% and the “% Control ECHCG Ob” value [4, 13] was 33%. For the same molecule, the “% Control ECHCG Ob” value ([4]; Metamifop 30 g ai/ha alone, 21 DAA, Table 4) was 74%.

In the case of `CCCC(=NOCC(C)Oc1ccc(Cl)cc1)C1=C(O)CC(C2CCCSC2)CC1=O` (stereo not shown) [Profoxydim, 2-[1-[[2-(4-chlorophenoxy)propoxy]imino]-butyl]-3-hydroxy-5-(tetrahydro-2H-thiopyran-3-yl)-2-cyclohexen-1-one], the “% Control LEFCH Ob” value ([3]; Profoxydim 25 g ai/ha alone, Table 5) is reported as 61%, the “% Control LEFCH Ob” value ([3]; Profoxydim 50 g ai/ha alone, Table 5) is reported as 78% and the “% Control ECHCG Ob” value ([4]; Profoxydim 25 g ai/ha alone, 21 DAA, Table 5) is reported as 54%.
